Among the data in patent publication US8436205B2, “Tetrahydronaphthalene compounds” (Actelion Pharmaceuticals Ltd., priority 2008, dated 2013) are IC50 and EC50 values, retold here.

pEC50, pIC50: −log10 of the molar value.

In assay [1] the test system is human Cav3.1 Cav3.2 or Cav3.3 channel. Kind of assay: In vitro assay T channel (FLIPR, Ca2+-induced calcium fluorescence). Format: cell-based. The settings on record: HEK293 cells; 10 mM Ca2+; geometric mean from n values; read-out: T channel antagonistic activity IC50. The protocol:
The T channel antagonistic activity (IC50 values) of the compounds of formula (I) is determined in accordance with the following experimental method and data are shown in Table 1.
Human embryonic kidney (HEK293) cells expressing the human Cav3.1 Cav3.2 or Cav3.3 channel, respectively, are grown in culture medium (DMEM containing 10% heat-inactivated fetal calf serum (FCS), 100 U/ml penicillin, 100 μg/ml streptomycin and 1 mg/ml G418). The cells are seeded at 20.000 cells/well into 384-well black clear bottom sterile plates (poly-L-lysine-coated, Becton Dickinson). The seeded plates are incubated overnight at 37° C. in 5% CO2. The Ca^2+ solution is prepared as 100 mM stock solution in 100 mM tetraethylammoniumchloride (TEA-chloride), 50 mM HEPES, 2.5 mM CaCl2, 5 mM KCl, 1 mM MgCl2, adjusted to pH 7.2 with TEA-hydroxide, for use in the assay at a final concentration of 10 mM. Antagonists are prepared as 10 mM stock solutions in DMSO, then diluted in 384 w plates first in DMSO, then in 100 mM TEA-chloride, 50 mM HEPES, 2.5 mM CaCl2, 5 mM KCl, 1 mM MgCl2, adjusted to pH 7.2 with TEA-hydroxide, to obtain 9× stocks. On the day of the assay, 25 μl of staining buffer (HBSS containing 20 mM HEPES, 0.375 g/l NaHCO3 and 3 μM of the fluorescent calcium indicator fluo-4 AM (1 mM stock solution in DMSO, containing 10% pluronic) is added to each well of the seeded plate. The 384-well cell-plates are incubated for 60 min at 37° C. in 5% CO2 followed by washing with 2×50 μl per well using HBSS containing 0.1% BSA, 20 mM HEPES, 0.375 g/l NaHCO3, leaving 50 […] of this buffer for equilibration at room temperature (30-60 min). Within the Fluorescent Imaging Plate Reader (FLIPR, Molecular Devices), antagonists are added to the plate in a volume of 6.25 Owen, incubated for 3 min, and finally 6.25 […] of Ca^2+ solution is added. Fluorescence is measured for each well at 2 second intervals for 8 minutes, and the area under the curve of each fluorescence peak is compared to the area of the fluorescence peak induced by 10 mM Ca^2+ with vehicle in place of antagonist. For each antagonist, the 1050 value (the concentration (in nM) of compound needed to inhibit 50% of the Ca^2+-induced fluorescence response) up to 10 μM is determined. The calculated IC50 values of the compounds may fluctuate depending on the daily cellular assay performance. Fluctuations of this kind are known to those skilled in the art.

The subject of a further assay is isolated mouse hearts. Kind of assay: Effect on isolated hearts according to the Langendorff method (Lgdff). The protocol:
The compounds were tested for their potential to reduce blood pressure and their effect on the contractility of the heart muscle. EC50 values on isolated mouse hearts were determined according to Literature (Doring H J., The isolated perfused heart according to Langendorff technique—function—application, Physiol. Bohemoslov. 1990, 39(6), 481-504; Kligfield P, Horner H, Brachfeld N., A model of graded ischemia in the isolated perfused rat heart, J. Appl. Physiol. 1976 June, 40(6), 1004-8).
7 example compounds have been measured using the procedure described above for the Langendorff experiment. The measured EC50 values were in the range of 7 to 29 nM with an average of 13 nM.

The term pIC50 denotes −log10 of the IC50, conventionally taken in molar units. Consider `COCC(C)(COC)CN(CCF)CCCN(C)CC[C@@]1(O)CCc2cc(F)ccc2[C@@H]1C(C)C` [Example 1, (1S,2S)-6-Fluoro-2-[2-({3-[(2-fluoro-ethyl)-(3-methoxy-2-methoxymethyl-2-methyl-propyl)-amino]-propyl}-methyl-amino)-ethyl]-1-isopropyl-1,2,3,4-tetrahydro-naphthalen-2-ol], for which, in assay [1], the pIC50 was 5.49. Still for that read-out and setting: for `COCC(C)(COC)CN(CCCN(C)CC[C@@]1(O)CCc2cc(F)ccc2[C@@H]1C(C)C)CC(F)F` [Example 5, (1S,2S)-2-[2-({3-[(2,2-Difluoro-ethyl)-(3-methoxy-2-methoxymethyl-2-methyl-propyl)-amino]-propyl}methyl-amino)-ethyl]-6-fluoro-1-isopropyl-1,2,3,4-tetrahydro-naphthalen-2-ol] the value was 5.43. In general, pEC50 refers to the negative decadic logarithm of the EC50, by convention in mol/L. Read a low pEC50 as a large EC50. On to `COCC(C)(COC)CN(CCF)CCCN(C)CC[C@@]1(OC(=O)CC(F)(F)F)CCc2cc(F)ccc2[C@@H]1C(C)C` [Example 3, 3,3,3-Trifluoro-propionic acid (1S,2S)-6-fluoro-2-[2-({3-[(2-fluoro-ethyl)-(3-methoxy-2-methoxymethyl-2-methyl-propyl)-amino]-propyl}-methyl-amino)-ethyl]-1-isopropyl-1,2,3,4-tetrahydro-naphthalen-2-yl ester], for which the pIC50 in assay [1] is 5.27. The same compound gave a pEC50 with isolated mouse hearts of 8.15.

As for `COCC(C)(COC)CN(CCCN(C)CC[C@@]1(O)CCc2cc(F)ccc2[C@@H]1C(C)C)CC(F)(F)F` [Example 8, (1S,2S)-6-Fluoro-1-isopropyl-2-[2-({3-[(3-methoxy-2-methoxymethyl-2-methyl-propyl)-(2,2,2-trifluoro-ethyl)-amino]-propyl}-methyl-amino)-ethyl]-1,2,3,4-tetrahydro-naphthalen-2-ol], the pIC50 in assay [1] was 5.54. For `COCC(C)(COC)CN(CCCN(C)CC[C@@]1(OC(=O)C(C)C)CCc2cc(F)ccc2[C@@H]1C(C)C)CC(F)F` [Example 6, Isobutyric acid (1S,2S)-2-[2-({3-[(2,2-difluoro-ethyl)-(3-methoxy-2-methoxymethyl-2-methyl-propyl)-amino]-propyl}-methyl-amino)-ethyl]-6-fluoro-1-isopropyl-1,2,3,4-tetrahydro-naphthalen-2-yl ester], the pIC50 in assay [1] was 5.10. For the same compound, the pEC50 in the assay on isolated mouse hearts is 8.05. With `COCC(C)(COC)CN(CCCN(C)CC[C@@]1(OC(=O)CC(F)(F)F)CCc2cc(F)ccc2[C@@H]1C(C)C)CC(F)F` [Example 7, 3,3,3-Trifluoro-propionic acid (1S,2S)-2-[2-({3-[(2,2-difluoro-ethyl)-(3-methoxy-2-methoxymethyl-2-methyl-propyl)-amino]-propyl}-methyl-amino)-ethyl]-6-fluoro-1-isopropyl-1,2,3,4-tetrahydro-naphthalen-2-yl ester], in assay [1], the pIC50 was 5.20. On the same count and under the same terms, next, `COCC(C)(COC)CN(CCF)CCCN(C)CC[C@@]1(OC(=O)C(C)C)CCc2cc(F)ccc2[C@@H]1C(C)C` [Example 2, Isobutyric acid (1S,2S)-6-fluoro-2-[2-({3-[(2-fluoro-ethyl)-(3-methoxy-2-methoxymethyl-2-methyl-propyl)-amino]-propyl}-methyl-amino)-ethyl]-1-isopropyl-1,2,3,4-tetrahydro-naphthalen-2-yl ester]: 5.50. In the case of `COCC(C)(COC)CN(CCF)CCCN(C)CC[C@@]1(OC(=O)CF)CCc2cc(F)ccc2[C@@H]1C(C)C` [Example 4, Fluoro-acetic acid (1S,2S)-6-fluoro-2-[2-({3-[(2-fluoro-ethyl)-(3-methoxy-2-methoxymethyl-2-methyl-propyl)-amino]-propyl}-methyl-amino)-ethyl]-1-isopropyl-1,2,3,4-tetrahydro-naphthalen-2-yl ester], the pIC50 in assay [1] is 5.40. Same read-out and setting: next, `COCC(C)(COC)CN(CCCN(C)CC[C@@]1(OC(=O)C(C)C)CCc2cc(F)ccc2[C@@H]1C(C)C)CC(F)(F)F` [Example 9, Isobutyric acid (1S,2S)-6-fluoro-1-isopropyl-2-[2-({3-[(3-methoxy-2-methoxymethyl-2-methyl-propyl)-(2,2,2-trifluoro-ethyl)-amino]-propyl}-methyl-amino)-ethyl]-1,2,3,4-tetrahydro-naphthalen-2-yl ester]: 5.77. Consider `COCC(C)(COC)CN(CCCN(C)CC[C@@]1(OC(=O)CC(F)(F)F)CCc2cc(F)ccc2[C@@H]1C(C)C)CC(F)(F)F` [Example 10, 3,3,3-Trifluoro-propionic acid (1S,2S)-6-fluoro-1-isopropyl-2-[2-({3-[(3-methoxy-2-methoxymethyl-2-methyl-propyl)-(2,2,2-trifluoro-ethyl)-amino]-propyl}-methyl-amino)-ethyl]-1,2,3,4-tetrahydro-naphthalen-2-yl ester], for which the pIC50 in assay [1] was less than 5.00. This compound also had a pEC50 in the assay on isolated mouse hearts of 8.05.
